# Data published in patent US11873298B2, “Compounds and uses thereof” (JANSSEN PHARMACEUTICA NV, priority 2017, dated 2024).
# Key:
# [1] = target: T1, SCD1 (Homo sapiens, UniProt O00767); assay: Growth inhibition of humanized yeast strain expressing SCD1 as sole desaturase; type: cell-based
# T1 construct: host or cells: S. cerevisiae ole1Δ strain (W303 pdr1Δ pdr3Δ background), plasmid pRS316 with TDH3 promoter and CYC1 terminator
# T1 sequence (O00767 1-359): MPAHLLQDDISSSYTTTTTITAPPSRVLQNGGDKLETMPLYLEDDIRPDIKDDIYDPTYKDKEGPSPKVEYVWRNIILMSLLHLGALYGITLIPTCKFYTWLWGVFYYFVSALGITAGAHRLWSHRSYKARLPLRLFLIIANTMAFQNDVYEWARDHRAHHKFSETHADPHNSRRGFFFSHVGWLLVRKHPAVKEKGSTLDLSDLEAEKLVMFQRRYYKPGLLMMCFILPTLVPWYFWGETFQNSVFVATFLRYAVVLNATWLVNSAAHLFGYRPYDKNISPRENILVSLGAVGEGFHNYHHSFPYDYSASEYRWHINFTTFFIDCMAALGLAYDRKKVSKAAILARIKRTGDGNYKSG
# Method: (§1) Strain oleΔ (yeast ole1 deletion mutant) was constructed by deleting OLE1 with NAT-MX6 in BY4741, amplifying the deletion cassette from the genomic DNA of the resulting strain with primers flanking the ORF by 1000 bp upstream and downstream, transforming the resulting deletion cassette into W303 pdr1Δ pdr3Δ, and plating transformants on YPD media containing G418 (200 μg/mL) and nourseothricin ([…]) with 0.01% TWEEN®-20 and 0.5 mM oleic and palmitoleic acids.
# (§2) The coding sequence of yeast OLE1 was also cloned into this plasmid). These clones were then transformed into the ole1Δ strain and plated on CSM-Ura media (CSM lacking uracil) with 2% glucose (w/v) and independent colonies were isolated and amplified.
# (§3) All compound profiling experiments were performed using the same basic protocol. Different genetic backgrounds (e.g., gene deletions) or conditions (e.g., addition of oleic and palmitoleic acid) were replaced as indicated below.
# (§4) Yeast were cultured using standard techniques in complete synthetic media (CSM) and yeast nitrogen base supplemented with 2% (w/v) carbon source (glucose, raffinose, or galactose) to regulate the expression of the toxic disease protein. An initial starter culture was inoculated in 3 mL CSM-Glucose media and incubated overnight in a 30° C. shaker incubator (225 rpm). Saturated morning cultures were then diluted 1:20 in fresh CSM-Raffinose media and grown for 6 h to an OD600 (optical density) of ˜0.4-0.8 at 30° C. with shaking.
# (§5) Compound administration was performed in two separate steps. First, 15 μL of CSM-Galactose (induces expression of toxic protein) was dispensed into clear 384 well assay plates using a MULTIDROP™ Combi reagent dispenser. […] The cultures described above were then diluted to a 2× concentration (0.03 and 0.08 for alpha-synuclein and ApoE, final ODsoo of 0.015 and 0.04) in CSM-Galactose. For wild-type and Ole1/SCD1/SCD5 plasmid-containing strains, the 2× cell density was 0.02. […] For 96-well assays (FIGS. 1A and 1B), compound dilutions in DMSO were generated in 96 well plates and 1 μL was manually pipetted into 96 well clear bottom assay plates.
# (§6) For experiments using a plasmid-borne copy of Ole1, SCD1, or SCD5 (FIGS. 3B, 6, and 7), media lacking uracil (SX-Ura, where X is glucose, raffinose, or galactose), was used for all steps of the compound profiling protocol to ensure its maintenance throughout the assay.
# (§7) After yeast delivery, assay plates were incubated under humidified conditions at 30° C. for 24 to 40 h. ApoE4 rescue experiments were stopped at 24 h, aSyn experiments at 40 h, Ole1 at 24 h, and SCD1/SCD5 at 40 h. The growth of yeast was monitored by reading the ODsoo of each well using a microplate reader (Perkin Elmer EnVision™).
# [2] = target: T2, SCD5 (Homo sapiens, UniProt Q86SK9); assay: Growth inhibition of humanized yeast strain expressing SCD5 as sole desaturase; type: cell-based
# T2 construct: host or cells: S. cerevisiae ole1Δ strain (W303 pdr1Δ pdr3Δ background), plasmid pRS316 with TDH3 promoter and CYC1 terminator
# T2 sequence (Q86SK9 1-330): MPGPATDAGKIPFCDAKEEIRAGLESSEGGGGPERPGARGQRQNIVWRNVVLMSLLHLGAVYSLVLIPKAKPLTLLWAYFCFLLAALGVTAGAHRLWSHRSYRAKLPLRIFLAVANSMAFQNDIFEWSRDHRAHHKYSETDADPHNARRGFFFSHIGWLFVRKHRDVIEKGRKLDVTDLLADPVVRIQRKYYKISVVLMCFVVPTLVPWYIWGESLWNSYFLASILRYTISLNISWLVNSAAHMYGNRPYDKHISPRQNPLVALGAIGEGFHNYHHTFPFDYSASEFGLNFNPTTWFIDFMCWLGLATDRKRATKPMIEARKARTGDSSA
# Method: as §1, §2, §3, §4, §5, §6, §7
# [3] = growth inhibition of humanized yeast strain expressing human SCD1
# [4] = growth inhibition of humanized yeast strain expressing human SCD5
# [5] = humanized yeast strain expressing SCD1
# [6] = humanized yeast strain expressing SCD5
# [7] = yeast strain expressing human SCD1 as sole desaturase, Table 8
# [8] = yeast strain expressing human SCD5 as sole desaturase, Table 8
smiles,measurement,setting,value
CC(C)(C)CC(=O)N1CCC(c2nc(-c3ccc4cnn(C5(C)COC5)c4c3)no2)CC1 [Compound 807],IC50,"[1]; humanized yeast strain, 40 h",> 45 µM
same,IC50,"[2]; humanized yeast strain, 40 h",0.247 µM
CC(C)(C)OC(=O)N1CCC(c2noc(-c3ccnc(C4CCOC4)c3)n2)CC1 (stereo not shown) [Compound 999],IC50,"[1]; humanized yeast strain, 40 h",> 45 µM
same,IC50,"[2]; humanized yeast strain, 40 h",0.01 µM
CCOC(=O)CC(C)n1ncc2ccc(-c3noc(C4CCN(C(=O)OC(C)(C)C)CC4)n3)cc21 (stereo not shown) [Compound 651],IC50,[1]; [3],> 45 µM
same,IC50,[2]; [4],18.4 µM
CCC(=O)N1CCC(c2noc(-c3ccc4cnn([C@H]5CCOC5)c4c3)n2)CC1 [Compound 1049],IC50,"[1]; humanized yeast strain, 40 h",> 45 µM
same,IC50,"[2]; humanized yeast strain, 40 h",0.012 µM
CC1(OC(=O)N2CCN(c3noc(-c4ccnc(NC5COC5)c4)n3)CC2)CC1 [Compound 1008],IC50,"[1]; humanized yeast strain, 40 h",> 45 µM
same,IC50,"[2]; humanized yeast strain, 40 h",2.02 µM
CC(C)(C)OC(=O)N1C[C@@H]2[C@H](C1)[C@H]2C(=O)NCc1ccc(Cl)cc1 [Compound 773],IC50,"[1]; humanized yeast strain, 40 h",> 45 µM
same,IC50,"[2]; humanized yeast strain, 40 h",21.5 µM
Cc1nn(C)c2cc(-c3noc(C4CCN(C(=O)CN)CC4(F)F)n3)ccc12 (stereo not shown) [Compound 512],IC50,[1]; [5],> 45 µM
same,IC50,[2]; [6],> 45 µM
CC(C)(C)OC(=O)N1CCC(c2ccc(-c3ccc4cnn(C5COC5)c4c3)cn2)CC1 [Compound 966],IC50,"[1]; humanized yeast strain, 40 h",> 45 µM
same,IC50,"[2]; humanized yeast strain, 40 h",0.15 µM
CC(C)n1ncc2ccc(-c3nc(C4CCN(CC5CC5)C(=O)C4)no3)cc21 (stereo not shown) [Compound 1146],IC50,"[1]; humanized yeast strain, 40 h",> 45 µM
same,IC50,"[2]; humanized yeast strain, 40 h",0.38 µM
CC(C)(C)OC(=O)N1CCN(c2noc(-c3ccc4cnn(C5COC5)c4c3)n2)CC(F)(F)C1 [Compound 1012],IC50,"[1]; humanized yeast strain, 40 h",15 µM
same,IC50,"[2]; humanized yeast strain, 40 h",0.01 µM
Cc1nn(C)c2cc(-c3noc(C4CCN(C(=O)OC(C)(C)C)CC4(F)F)n3)ccc12 (stereo not shown) [Compound 504],IC50,[1]; [5],> 45 µM
same,IC50,[2]; [6],14.8 µM
O=C(c1ccccc1F)N1CCC(c2noc(-c3ccc4cnn(C5COC5)c4c3)n2)CC1 [Compound 696],IC50,[1]; [3],> 45 µM
same,IC50,[2]; [4],0.08 µM
C=Cc1nn(C(C)C)c2cc(-c3noc(C4CCN(C(=O)OC(C)(C)C)CC4)n3)ccc12 [Compound 653],IC50,[1]; [3],> 45 µM
same,IC50,[2]; [4],> 45 µM
COC(=O)N1CC(c2noc(-c3ccc4cnn(C5COC5)c4c3)n2)C1 [Compound 928],IC50,"[1]; humanized yeast strain, 40 h",> 45 µM
same,IC50,"[2]; humanized yeast strain, 40 h",0.01 µM
CC(=O)N1CC(n2ncc3ccc(-c4noc(C5CCN(C(=O)OC(C)(C)C)CC5)n4)cc32)C1 [Compound 710],IC50,[1]; [3],> 45 µM
same,IC50,[2]; [4],0.05 µM
CC(C)n1nc(CCS(C)(=O)=O)c2ccc(-c3noc(C4CCN(C(=O)OC(C)(C)C)CC4)n3)cc21 [Compound 766],IC50,"[1]; humanized yeast strain, 40 h",> 45 µM
same,IC50,"[2]; humanized yeast strain, 40 h",> 45 µM
CC(C)C(=O)N1CC[C@H](c2noc(-c3ccc4cnn(C5COC5)c4c3)n2)C[C@H]1C [Compound 1058],IC50,"[1]; humanized yeast strain, 40 h",> 45 µM
same,IC50,"[2]; humanized yeast strain, 40 h",0.00367 µM
COC(=O)N1CCCN(c2noc(-c3ccc4cnn(C5COC5)c4c3)n2)CC1 [Compound 857],IC50,"[1]; humanized yeast strain, 40 h",> 45 µM
same,IC50,"[2]; humanized yeast strain, 40 h",26.8 µM
COC(=O)N1CCC(c2nc(-c3ccc4c(c3)N(C(C)C)C(=O)C4)no2)CC1 [Compound 627],IC50,[1]; [3],> 45 µM
same,IC50,[2]; [4],6.69 µM
Cc1nn(C)c2cc(-c3noc(C4CCN(C(=O)CNC(=O)c5ccc(F)cc5)CC4(F)F)n3)ccc12 (stereo not shown) [Compound 557],IC50,[1]; [5],> 45 µM
same,IC50,[2]; [6],6.03 µM
COC(=O)N1CCC(c2noc(-c3ccc4cnn([C@@H]5CCOC5)c4c3)n2)CC1 [Compound 877],IC50,"[1]; humanized yeast strain, 40 h",> 45 µM
CC1(OC(=O)N2CCC(c3noc(-c4ccc5cnn([C@H]6CCOC6)c5c4)n3)CC2)CC1 [Compound 1209],IC50,[1]; [7],12.6 µM
CC(C)(C)OC(=O)N1CCC(c2noc(-c3ccc4cnn([C@H]5CCOC5)c4c3)n2)CC1 [Compound 1201],IC50,[1]; [7],1.4 µM
Cc1cc(-c2nc(C3CCN(C(=O)OC(C)(C)C)CC3)no2)cc(C2CCOC2)n1 (stereo not shown) [Compound 1266],IC50,[1]; [7],31.7 µM
COC(=O)N1CCN(c2cc(-c3ccc4cnn(C5COC5)c4n3)on2)CC1 [Compound 1238],IC50,[2]; [8],24.6 µM
COC(=O)N1CCC(c2nc(-c3ccc4cnn(C(F)F)c4c3)no2)CC1 [Compound 561],IC50,[2]; [6],29.4 µM
O=C(C1CC1)N1CCC(c2cc(-c3cc4c(cn3)cnn4C3COC3)on2)CC1 [Compound 1236],IC50,[2]; [8],0.2 µM
CC(C)(C)OC(=O)N1CCC(c2noc(-c3cc(N4CCOCC4)c(F)cn3)n2)CC1 [Compound 1273],IC50,[2]; [8],0.02 µM
CC(C)n1ncc2ccc(-c3noc(C4CCN(C(=O)c5ccsn5)CC4)n3)cc21 [Compound 588],IC50,[2]; [6],1.86 µM
CC(C)(C)OC(=O)N1CCC(c2noc(-c3ccc(OC4COC4)nc3)n2)CC1 [Compound 1249],IC50,[2]; [8],4.91 µM
CC(C)n1ncc2ccc(-c3noc(C4CCN(C(=O)c5ncc(Cl)s5)CC4)n3)cc21 [Compound 589],IC50,[2]; [6],0.356 µM
CC(C)(C)OC(=O)N1CCC(c2noc(-c3cc(N4CCC(F)(F)C4)ccn3)n2)CC1 [Compound 1286],IC50,[2]; [8],4.29 µM
O=C(OC1CCC1)N1CCC(c2noc(-c3ccn(C4COC4)c(=O)c3)n2)CC1 [Compound 1292],IC50,[2]; [8],15.1 µM
CC(=O)N[C@H]1CC[C@H](c2nc(-c3ccc4cnn(C(C)C)c4c3)no2)CC1 [Compound 535],IC50,[2]; [6],> 45 µM
CC(C)n1ncc2ccc(-c3noc(C4CCN(C(=O)c5ccccc5F)CC4)n3)cc21 [Compound 532],IC50,[2]; [6],2.15 µM
CC(C)n1ncc2ccc(-c3noc([C@H]4CC[C@@H](N)CC4)n3)cc21 [Compound 536],IC50,[2]; [6],> 45 µM
CC1(OC(=O)N2CCC(c3noc(-c4ccnc(-c5cocn5)c4)n3)CC2)CC1 [Compound 1310],IC50,[2]; [8],0.47 µM
O=C(C1CCC1)N1CCC(c2cc(-c3cnc4cnn(C5COC5)c4c3)on2)CC1 [Compound 1232],IC50,[2]; [8],7.84 µM
COC(=O)N1CCC(c2noc(-c3ccc4cnn([C@@H]5CCOC5)c4c3)n2)CC1 [Compound 876],IC50,"[1]; humanized yeast strain, 40 h",> 45 µM
Cn1cnc(-c2cc(-c3nc(C4CCN(C(=O)OC(C)(C)C)CC4)no3)ccn2)c1 [Compound 1294],IC50,[2]; [8],0.19 µM
CC(C)n1ncc2ccc(-c3nc(N4CCN(C(=O)OC(C)(C)C)CC4)no3)cc21 [Compound 548],IC50,[2]; [6],0.01 µM
Cc1noc2cc(-c3noc(C4CCN(C(=O)OC5(C)CC5)CC4)n3)ccc12 [Compound 590],IC50,[2]; [6],> 45 µM
COCC(=O)N1CCN(c2nc(-c3ccc4cnn(C(C)C)c4c3)no2)CC1 [Compound 595],IC50,[2]; [6],> 45 µM
CCC(=O)N1CCC(c2cc(-c3cc4c(cn3)cnn4C3COC3)on2)CC1 [Compound 1227],IC50,[2]; [8],0.96 µM
CC(C)n1ncc2ccc(-c3noc(N4CCN(C(=O)OCC(F)(F)F)CC4)n3)cc21 [Compound 593],IC50,[2]; [6],> 45 µM
Cc1nn(C)c2cc(-c3nsc(C4CCN(C(=O)OC(C)(C)C)CC4)n3)ccc12 [Compound 503],IC50,[2]; [6],0.316 µM
O=C(C1CC1)N1CCC(c2noc(-c3ccnc(O[C@@H]4CCOC4)c3)n2)CC1 [Compound 1255],IC50,[2]; [8],1.88 µM
CC(C)C(=O)N1CCC(c2noc(-c3cc(F)c(F)c(N4CCOCC4)c3)n2)CC1 [Compound 1304],IC50,[2]; [8],11.9 µM
CC(C)n1ncc2ccc(N3CC4(CCN(C(=O)OC5CC5)CC4)C3)cc21 [Compound 594],IC50,[2]; [6],11.8 µM
COC(=O)N1CCC(c2noc(-c3cnnc(C4CCOC4)c3)n2)CC1 (stereo not shown) [Compound 1250],IC50,[2]; [8],10.1 µM
